Reference: BindingDB's records for doi:10.1021/jm020911e (Universit&#224, 2002)
pKi: −log10 of the molar value.

molecular target: Adenosine receptor A3 (Bos taurus); test: Displacement of [125I]AB-MECA from Adenosine A3 receptor in bovine cortical membranes in the presence of 20 nM DPCPX.

Row | Structure (SMILES) | pKi
1 | O=C(Nc1nc(-c2ccccc2)nc2nc(-c3ccccc3)cn12)C1CCCC1 [Cyclopentanecarboxylic acid (2,7-diphenyl-imidazo[1,2-a][1,3,5]triazin-4-yl)-amide] | 5.91
2 | CC(C)c1cn2c(NC(=O)C3CCCC3)nc(-c3ccccc3)nc2n1 [Cyclopentanecarboxylic acid (7-isopropyl-2-phenyl-imidazo[1,2-a][1,3,5]triazin-4-yl)-amide] | 7.76
3 | Cc1cn2c(NC3CCCC3)nc(-c3ccccc3)nc2n1 [Cyclopentyl-(7-methyl-2-phenyl-imidazo[1,2-a][1,3,5]triazin-4-yl)-amine] | 5.65
4 | CC(=O)Nc1nc(-c2ccccc2)nc2nc(-c3ccccc3)cn12 [N-(2,7-Diphenyl-imidazo[1,2-a][1,3,5]triazin-4-yl)-acetamide] | 7.40

The next lines start with the values.

Row | pKi | Structure (SMILES)
5 | < 5.00 | CCC(=O)CNc1nc(-c2ccccc2)nc2nc(C)cn12 [1-(7-Methyl-2-phenyl-imidazo[1,2-a][1,3,5]triazin-4-ylamino)-butan-2-one]
6 | < 5.00 | CC(=O)CNc1nc(-c2ccccc2)nc2nc(C)cn12 [1-(7-Methyl-2-phenyl-imidazo[1,2-a][1,3,5]triazin-4-ylamino)-propan-2-one]
7 | 6.64 | CC(=O)Nc1nc(-c2ccccc2)nc2nc(C)cn12 [N-(7-Methyl-2-phenyl-imidazo[1,2-a][1,3,5]triazin-4-yl)-acetamide]
